Test results reported in US5051419A, “Prevention or elimination of mycoplasma contamination of animal or plant cell cultures” (Dainippon Pharmaceutical Co., Ltd., priority 1988, dated 1991).
Values after ≈ are worked out from the molar mass of the structure shown.

How the values were obtained:
M. arginini G230 = assay: Anti-mycoplasmal activity (MIC), agar-dilution method; format: cell-based, Mycoplasma arginini; settings: Mycoplasmopsis arginini; agar dilution; M. arginini G230; read-out: MIC
Method: (§1) The minimum growth inhibitory concentrations (MIC; μg/ml) of the test chemicals were measured by the agar-dilution method.
(§2) (1) Preparation of a mycoplasma suspension for inoculation
(§3) A stored frozen suspension of mycoplasma (0.2 to 0.3 ml) was inoculated in 2 to 3 ml of a preculture medium to be described later. It was serially diluted tenfold until the dilution ratio reached 10,000 times. These diluted solutions were cultivated at 37° C. for 2 to 7 days. A culture having the highest dilution ratio was selected from those cultures in which a color change of the media was noted as a result of mycoplasma growth. It was diluted to 100 times with the preculture medium to prepare a mycoplasma suspension for inoculation.
The following preculture media were used.
For other mycoplasma species, Chanock liquid medium (pH 6.8) containing 0.2% arginine was used.
(§4) (2) Preparation of agar plates containing the test chemicals
A 1,000 μg/ml aqueous solution of each test chemical was prepared (a difficultly-soluble chemical was dissolved by adding an equimolar amount of sodium hydroxide; the same applies hereinafter). The solution was used as a base solution and its twofold serial dilutions were prepared. The diluted solutions were pipetted on plastic petri dishes each in an amount of 1 ml. The Chanock agar medium (for Mycoplasma hyorhinis, 0.5% mucin was further added) described at page 9 of the above cited "Procedures for Isolation and Identification of Human, Animal and Plant Mycoplasmas" was heated and kept at 55° C. and put in an amount of 9 ml in each of the petri dishes containing the test chemicals and fully mixed with the test chemicals to prepare agar plates containing the test chemicals.
The mycoplasma suspension for inoculation prepared by the procedure described in section (1) was inoculated in an amount of about 3 microliters on each of the chemical-containing agar plates by means of a Cathra-replicator (3 mm pin). The plates on which Mycoplasma pneumoniae, Mycoplasma arginini, and Acholeplasma laidlawii and Mycoplasma hyorhinis were inoculated were tightly packed in a plastic bag together with the plasic petri dishes including water-immersed absorbent cotton. Mycoplasma pneumoniae was aerobically cultivated at 37° C. under highly humid conditions for 7 days; and Mycoplasma arginini and Acholeplasma laidlawii, for 2 days. The other mycoplasma species were cultivated anaerobically for 2 days by using a GasPak anaerobic system (BBL). After the cultivation, growth of mycoplasma were observed under an OLYMPUS microscope (20-100 X). The lowest concentration of the test chemical at which no growth of mycoplasma was noted is defined as MIC.

M. orale CH-19299 = assay: Anti-mycoplasmal activity (MIC, MMC), liquid dilution method; format: cell-based, Mycoplasma orale; settings: Metamycoplasma orale, liquid dilution, M. orale CH-19299; for MBC: CH19299, 120 h, read-out: MMC; for MIC: CH19299, read-out: MIC
Method: The minimum growth inhibitory concentration (MIC, μg/ml) and minimum mycoplasmacidal concentration (MMC, μg/ml) of test chemicals were measured by the liquid dilution method. The method of measuring MIC in this example differs from that used in Test Example 1.
A 1,000 μg/ml aqueous solution of a test chemical was prepared, and diluted to 5 times with a preculture medium. The dilution (200 μg/ml) was serially diluted twofold with the same medium in a 8-well reservoir. Fifty microliters of each diluted solution was distributed in the wells of a microplate. A well to which no test chemical was added was used as a control.
A mycoplasma suspension for inoculation prepared as in Test Example 1 was pipetted in an amount of 50 microliters to each of the wells. The microplates were sealed by a plate seal, shaken by a micromixer, and cultivated at 37° C. for 5 days. In the control to which no test chemical was added, color change of the medium by the growth of mycoplasma was observed after two days from the start of the cultivation. At this time, 3 microliters of the liquid culture was inoculated in drug-free Chanock agar medium by using a Cathra-replicator. The liquid culture and the agar medium were further cultivated at 37° C. for 3 days (anaerobically in the case of M. orale, and aerobically in the case of A. laidlawii and M. arginini). MIC and MMC were determined from the results of observation on the 5th day. MIC was defined as the lowest concentration of the test chemical at which growth of mycoplasma in the drug-containing liquid medium was not noted, and MMC, as that in the drug-free agar medium.

[1] = tested on: spontaneously contaminated human lung carcinoma cells [I]; assay: Activity of eliminating spontaneously contaminated mycoplasmas, cell [I]; format: cell-based, mycoplasma species unknown; human cells; note: key: +: mycoplasma positive; -: mycoplasma negative
Method: (§5) Mycoplasma-contaminated L-929 cells were cultivated as described in the preceding section. A 1,000 μg/ml aqueous solution of a test chemical was prepared, and diluted to predetermined concentrations with Eagle's minimum essential medium. The diluted solutions were added to the culture medium. Two petri dishes were used for each concentration of the test chemical, and two circular cover glasses were put in one of them for examination of mycoplasma. No cover glass was put in the other petri dish, and it was used for subcultivation. Cultivation in the test chemical-containing medium was carried out for 4 days, and thereafter, the cultivation was continued for 3 weeks in a drug-free medium. Medium replacement was effected every 3 to 4 days, and subcultivation was carried out once a week. Examination for mycoplasma contamination was performed on the 4th and 7th days, and thereafter every week. The mycoplasmas were detected by the highly specific DNA-fluorochromic staining method.
(§6) The activity of test compound to eliminate mycoplasma contamination was tested as in Test Example 3 on spontaneously contaminated human lung carcinoma cells [I] and human melanoma cells [II].
(§7) The period during which the cultivation was continued in the presence of the test chemicals was 7 days, and the mycoplasma species which infected the cells were unknown.

[2] = Cytotoxicity on FL cells (cell proliferation inhibition); format: cell-based, human; settings: human, fl human amnion cells; ratio of FL cell IC50 to MIC for mycoplasmas
Method: (§8) Whether test chemicals would inhibit growth of cells was examined.
(§9) A 1,000 μg/ml aqueous solution of each of the test chemicals was serially diluted twofold with Eagle's minimum essential medium.
(§10) FL human-amnion cells (2×10^4 cells) were suspended in 3.6 ml of 10% FBS-MEM medium, put in petri dishes (diameter 60 mm) for tissue culture, and cultivated at 37° C. in 5% CO2 humidified atmosphere for 48 hours. The test chemical solution prepared as above was added in an amount of 0.4 ml to each of the petri dishes in predetermined concentrations, and the cells were cultivated for 3 days. After the cultivation, the medium was removed, and the remainder was washed once with Dulbecco's phosphate buffer (pH 7.4). The cells were peeled off by adding 0.2 ml of a 2.5% trypsin-0.002% EDTA mixed solution (1:9) and properly diluted with 10% FBS-MEM medium. Then, the number of the cells was counted by an Erma hemocytometer.
(§11) The cell proliferation rate was calculated by following formula [formula]

FL human-amnion cells = assay: as above; format: cell-based; settings: for IC50: Homo sapiens, 72 h, FL cells, 3 days, read-out: IC50 (50% cell proliferation inhibitory concentration)
Method: as §8, §9, §10, §11

[3] = tested on: human melanoma cells [II]; assay: Activity of eliminating spontaneously contaminated mycoplasmas, cell [II]; format: cell-based, mycoplasma species unknown; human cells; note: key: +: mycoplasma positive; -: mycoplasma negative
Method: as §5, §6, §7

mycoplasma [4] = assay: Anti-mycoplasmal activity (MIC), agar-dilution method, all species of Table 1 together; format: cell-based; settings: in words
Method: as §1, §2, §3, §4
A 1,000 μg/ml aqueous solution of each test chemical was prepared (a difficultly-soluble chemical was dissolved by adding an equimolar amount of sodium hydroxide; the same applies hereinafter). The solution was used as a base solution and its twofold serial dilutions were prepared. The diluted solutions were pipetted on plastic petri dishes each in an amount of 1 ml. […]

Staphylococcus aureus = assay: Antibacterial activity (MIC); format: cell-based; settings: for MIC: unit inferred
mycoplasma [5] = assay: Activity of eliminating spontaneously contaminated mycoplasmas, Test Example 4 as a whole; format: cell-based
Method: as §6, §7

Row | SMILES | MIC (M. arginini G230) | MBC (M. orale CH-19299) | MIC (M. orale CH-19299) | mycoplasma elimination ([1]; 0.2 μg/ml, day 0) | mycoplasma elimination ([1]; 0.2 μg/ml, day 7) | mycoplasma elimination ([1]; 0.2 μg/ml, day 14) | mycoplasma elimination ([1]; 0.2 μg/ml, day 28) | selectivity ratio at 72 h [2] | IC50 (FL human-amnion cells) | mycoplasma elimination ([3]; 0.2 μg/ml, day 0) | mycoplasma elimination ([3]; 0.2 μg/ml, day 7) | mycoplasma elimination ([3]; 0.2 μg/ml, day 14) | mycoplasma elimination ([3]; 0.2 μg/ml, day 21) | mycoplasma elimination ([3]; 0.2 μg/ml, day 28) | anti-mycoplasmal activity (MIC) compared with control compounds (mycoplasma [4]) | MIC (Staphylococcus aureus; Staphylococcus aureus) | further results
1 | CN(C)c1ccc(O)c2c1C[C@H]1C[C@H]3[C@H](N(C)C)C(O)=C(C(N)=O)C(=O)[C@@]3(O)C(O)=C1C2=O [Compound 3, minocycline] | 0.39 µg/mL (≈ 0.852 µM) | 25 µg/mL (≈ 54.6 µM) | 0.39 µg/mL (≈ 0.852 µM) |  |  |  |  |  |  |  |  |  |  |  |  |  | 
2 | CC1CN(c2c(F)c(N)c3c(=O)c(C(=O)O)cn(C4CC4)c3c2F)CCN1 (stereo not drawn) [Compound 1] | 0.1 µg/mL (≈ 0.264 µM) | 0.39 µg/mL (≈ 1.03 µM) | 0.39 µg/mL (≈ 1.03 µM) | + | + | + | + | 66 to 528 | 13.2 µg/mL (≈ 34.9 µM) | + | - | + | + | + | better than those of control compounds 2 to 4 | 0.025 µg/mL (≈ 0.0661 µM) | mycoplasma elimination ([1]; 0.39 μg/ml, day 0): +; mycoplasma elimination ([1]; 0.39 μg/ml, day 7): -; mycoplasma elimination ([1]; 0.39 μg/ml, day 14): -; mycoplasma elimination ([1]; 0.39 μg/ml, day 28): -; mycoplasma elimination ([3]; 0.39 μg/ml, day 0): +; mycoplasma elimination ([3]; 0.39 μg/ml, day 7): -; mycoplasma elimination ([3]; 0.39 μg/ml, day 14): -; mycoplasma elimination ([3]; 0.39 μg/ml, day 21): -; mycoplasma elimination ([3]; 0.39 μg/ml, day 28): -
3 | NCC1CN(c2c(F)c(N)c3c(=O)c(C(=O)O)cn(C4CC4)c3c2F)CCO1 (stereo not drawn) [Compound A, 5-amino-7-(2-aminomethylmorpholino)-1-cyclopropyl-6,8-difluoro-1,4-dihydro-4-oxoquinoline-3-carboxylic acid] | 0.05 µg/mL (≈ 0.127 µM) | 0.05 µg/mL (≈ 0.127 µM) | 0.05 µg/mL (≈ 0.127 µM) | + | - | - | - | 180 to 1440 | 18 µg/mL (≈ 45.6 µM) | + | - | - | - | - | more potent than those of control compounds 1 to 4 | 0.0063 µg/mL (≈ 0.016 µM) | mycoplasma elimination ([1]; 0.1 μg/ml, day 0): +; mycoplasma elimination ([1]; 0.1 μg/ml, day 7): +; mycoplasma elimination ([1]; 0.1 μg/ml, day 14): +; mycoplasma elimination ([1]; 0.1 μg/ml, day 28): +; safety range (FL human-amnion cells; in words, IC50/MIC): the safety range is broadest in compound A; toxicity on cultivated cells (FL human-amnion cells; in words, summary): little toxicity on cultivated cells; mycoplasma elimination ([3]; 0.1 μg/ml, day 0): +; mycoplasma elimination ([3]; 0.1 μg/ml, day 7): -; mycoplasma elimination ([3]; 0.1 μg/ml, day 14): +; mycoplasma elimination ([3]; 0.1 μg/ml, day 21): +; mycoplasma elimination ([3]; 0.1 μg/ml, day 28): +; minimal effective concentration (mycoplasma [5]; Mycoplasma, 168 h, spontaneously contaminated cells [I] and [II]): 0.2 µg/mL; mycoplasma eliminating concentration relative to control compound 1 (mycoplasma [5]; fraction of that of control compound 1): 1/2; mycoplasma eliminating concentration relative to control compound 2 (ciprofloxacin) (mycoplasma [5]; fraction of that of control compound 2): 1/32; antibacterial activity (Staphylococcus aureus; in words): potent antibacterial activity and is superior to control compounds 1 to 4; antibacterial activity relative to compound 1 (Staphylococcus aureus; in words, Staphylococcus aureus): about four times as potent antibacterial activity as compound 1
